pIC50: −log10 of the molar value. Where a name gives a salt, the structure may show the parent alone.
Tests used:
[1] = biological target: T1, raf1 with inactive MEK1 (Raf1-MEK1) (Homo sapiens, UniProt P04049); assay: Raf1-MEK1 assay (KinaseGlo); assay type: biochemical; details: for pIC50: Raf-Mek, 3 uM ATP, read-out: RAF-MEK assay (biochemical assay)
T1 construct: purchased Upstate, Lake Placid, N.Y

[2] = tested on: p-MEK and p-ERK levels in HUVECs; assay: Western Blot, inhibition of MAPK pathway in cellular assay (Example 27); assay type: cell-based, human; details: at 5 uM, 50 ng/ml VEGF or FGF
Experimental: Western Blot: Early passage primary human umbilical vein endothelial cells (HUVECs) were maintained in EGM-2 containing SingleQuots (Cambrex, East Rutherford, N.J.), 10% FBS, 10 mM HEPES, and 50 μg/ml gentamicin. Prior to treatment of the cells with inhibitor, the HUVECs were starved for 18 h by replacing serum-containing complete media with scrum-free and SingleQuot-free media. The starved cells were pre-treated with inhibitors for 60 min at various concentrations (0-20 μM). Next the HUVECs were treated with 50 ng/ml VEGF or FGF (Peprotech, Rocky Hill, N.J.) for 6 min and the cells were immediately washed with ice-cold PBS. Cells were lysed with ice-cold RIPA buffer containing 100 mM Tris pH 7.5, 150 mM NaCl, 1 mM EDTA, 1% deoxycholate, 1% Triton X-100, 0.1% SDS, 2 mM PMSF, one Complete-Mini protease inhibitor tablet (Roche, Indianapolis, Ind.; 1 tablet/7 ml of lysis buffer) and the phophatase inhibitors NaF (500 mM) and orthovanadate (1 mM). The cells were scraped and lysates transferred and centrifuged at 15,000 g for 10 min. Supernatants were transferred to new tubes and protein concentration was quantitated using the BCA protein reagent (Pierce, Rockford, Ill.). Cell lysates containing 20 μg of total protein were separated by 10% SDS-PAGE, transferred to nitrocellulose, and blocked in 5% milk in TBST. Anti phospho-ERK Thr 202/Tyr 204 (Cell Signaling, Beverly, Mass.), anti-phospho-MEK Ser217/221 (Cell Signaling), and c-Raf (BD Biosciences Pharmingen, San Diego, Calif.) used as primary antibodies were detected with horseradish peroxidase-conjugated goat anti-mouse or rabbit secondary antibodies and bands were visualized using the SuperSignal West Pico chemiluminescence reagent system (Pierce) and Kodak X-ray film (Rochester, N.Y.).

HUVECs = assay: XTT cell viability assay (Example 28); assay type: cell-based; details: Homo sapiens, HUVEC, 24-48 hours, read-out: Inhibition of HUVEC cell prolifiration (IC50)
Experimental: XTT assay: HUVECs were seeded at 10,000 cells/well of a tissue culture treated 96-well plate treated with collagen type I and grown overnight in the complete EGM-2 media as described above. The following morning, the inhibitors were serial diluted with DMSO and added to the cells with a final DMSO concentration of 1%. After 24-48 hours cell viability was measured with an XTT assay (Sigma, St. Louis, Mo.). The cells were also photographed to compare morphological differences to the XTT trends observed. Determination of the IC50 values was performed with quantitative software (Prism software package, GraphPad Software, San Diego Calif.).

recombinant human raf1 = biological target: T2, recombinant human raf1 (Homo sapiens, UniProt P04049); assay: Raf1 direct kinase assay (KinaseGlo); assay type: biochemical; details: printed in the RAF-MEK column
T2 construct: purchased Upstate, Lake Placid, N.Y
T2 sequence (P04049 whole entry): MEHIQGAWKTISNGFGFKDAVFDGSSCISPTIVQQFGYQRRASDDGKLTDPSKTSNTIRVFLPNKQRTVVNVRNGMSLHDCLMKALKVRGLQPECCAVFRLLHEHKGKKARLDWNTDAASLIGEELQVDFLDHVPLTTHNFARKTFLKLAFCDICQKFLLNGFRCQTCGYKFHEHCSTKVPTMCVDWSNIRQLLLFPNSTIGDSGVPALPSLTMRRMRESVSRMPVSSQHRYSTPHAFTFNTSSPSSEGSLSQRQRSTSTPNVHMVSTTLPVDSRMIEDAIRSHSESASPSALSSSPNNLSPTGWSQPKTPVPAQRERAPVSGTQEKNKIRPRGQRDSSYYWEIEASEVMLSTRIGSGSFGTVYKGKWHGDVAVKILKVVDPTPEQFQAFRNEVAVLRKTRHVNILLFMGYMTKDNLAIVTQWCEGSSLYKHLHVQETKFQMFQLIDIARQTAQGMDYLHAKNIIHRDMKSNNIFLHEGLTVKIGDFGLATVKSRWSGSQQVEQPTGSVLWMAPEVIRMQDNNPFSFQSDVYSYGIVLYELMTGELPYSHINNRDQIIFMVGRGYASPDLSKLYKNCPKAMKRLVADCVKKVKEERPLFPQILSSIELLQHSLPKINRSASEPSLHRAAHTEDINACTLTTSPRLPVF
Experimental: The ability of compounds of general structure (A) of the present invention to inhibit the kinase activity of Raf1 was evaluated using two methods: a direct and a Raf1-MEK1 assay. In the direct assay, kinase reactions were conducted in 96-well plates by combining recombinant human raf1 (29.4 U/well, Upstate, Lake Placid, N.Y.), ATP (3 μM), myelin basic protein substrate (MBP, 1 mg/ml, Upstate, Lake Placid, N.Y.), and test agents (at concentrations ranging from about 1 nM/l to about 10 μM), in the presence of kinase reaction buffer. […] After reacting for 60 minutes at 30° C., residual ATP was measured using a luciferase-based assay (KinaseGlo, Promega Corp.) as a measure of kinase activity. Data from four wells were then averaged and used to determine IC50 values for the test compounds (Prism software package, GraphPad Software, San Diego Calif.).

T1 sequence (P04049 306-648 limits assumed): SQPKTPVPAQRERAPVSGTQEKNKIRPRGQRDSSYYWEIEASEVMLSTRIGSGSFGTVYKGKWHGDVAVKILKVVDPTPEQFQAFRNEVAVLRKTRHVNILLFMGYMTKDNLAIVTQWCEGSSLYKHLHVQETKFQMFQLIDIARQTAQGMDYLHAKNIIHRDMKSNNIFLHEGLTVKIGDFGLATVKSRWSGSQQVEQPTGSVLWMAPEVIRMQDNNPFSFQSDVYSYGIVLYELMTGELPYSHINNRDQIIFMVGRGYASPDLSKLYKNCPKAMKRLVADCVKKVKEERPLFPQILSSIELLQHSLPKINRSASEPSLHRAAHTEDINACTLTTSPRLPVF

pIC50 [1] | window [1] [%] | pIC50 (recombinant human raf1) | RAF-MEK assay (biochemical assay), result in words [1] | SMILES | Western Blot [2] | pIC50 (HUVECs)
6.14 | ~30 | – | – | CNC(=O)c1cc(Oc2ccc3nc(NC(=O)c4cc(C(F)(F)F)cc(Cl)c4F)nnc3c2)ccn1 [4-[2-fluoro-3-chloro-5-trifluoromethyl-benzoylamino)-benzo[1,2,4]triazin-7-yloxy]-pyridine-2-carboxylic acid methyl amide trifluoroacetate salt] | not active at 5 uM | –
– | – | – | – | O=C(Nc1nnc2cc(Oc3ccnc(C(=O)NCCN4CCOCC4)c3)ccc2n1)c1ccc(OC(F)(F)F)cc1 [4-[3-(4-Trifluoromethoxy-benzoylamino)-benzo[1,2,4]triazin-7-yloxy]-pyridine-2-carboxylic acid (2-morpholin-4-yl-ethyl)-amide] | active at 5 uM | 5.83
4.30 to 5.00 | 100 | 7.11 | – | CNC(=O)c1cc(Oc2ccc3nc(Nc4ccc(Cl)cc4)nnc3c2)ccn1 [4-[3-(4-chloro-phenylamino)-benzo[1,2,4]triazin-7-yloxy]-pyridine-2-carboxylic acid methylamide trifluoroacetate salt] | not active at 5 uM | –
– | – | – | flat | CNC(=O)c1cc(Oc2ccc3nc(NC(=O)c4cccc(Cl)c4)nnc3c2)ccn1 [trifluoroacetate salt] | not active at 5 uM | –
4.30 to 5.00 | – | – | – | CNC(=O)c1cc(Oc2ccc3nc(NC(=O)c4ccc(Cl)c(C(F)(F)F)c4)nnc3c2)ccn1 [4-[3-(4-chloro-3-trifluoromethyl-benzoylamino)-benzo[1,2,4]triazin-7-yloxy]pyridine-2-carboxylic acid meth amide trifluoroacetate salt] | not active at 5 uM | –
– | – | – | flat | CNC(=O)c1cc(Oc2ccc3nc(NS(=O)(=O)c4cccc(C(F)(F)F)c4)nnc3c2)ccn1 [4-[3-(3-trifluoromethyl-benzenesulfonylamino)-benzo[1,2,4]triazin-7-yloxy]-pyridine-2-carboxylic acid methyl amide trifluoroacetate salt] | not active at 5 uM | –
– | – | – | flat | CNC(=O)c1cc(Oc2ccc3nc(NC(=O)c4cccc(C(F)(F)F)c4Cl)nnc3c2)ccn1 [4-[3-(2-chloro-3-trifluoromethyl-benzoylamino)-benzo[1,2,4]triazin-7-yloxy]-pyridine-2-carboxylic acid methyl amide trifluoroacetate salt] | not active at 5 uM | –
– | – | – | flat | CNC(=O)c1cc(Oc2ccc3nc(NS(=O)(=O)c4ccccc4C(F)(F)F)nnc3c2)ccn1 [4-[2-(trifluoromethyl-benzenesulfonylamino)-benzo[1,2,4]triazin-7-yloxy]-pyridine-2-carboxylic acid methyl amide trifluoroacetate salt] | not active at 5 uM | –
< 4.30 | – | – | – | CNC(=O)c1cc(Oc2ccc3nc(NS(=O)(=O)c4ccc(Cl)s4)nnc3c2)ccn1 [4-[3-(5-chloro-thiophene-2-sulfonylamino)-benzo[1,2,4]triazin-7-yloxy]-pyridine-2-carboxylic acid methyl amide trifluoroacetate salt] | not active at 5 uM | –
< 4.30 | – | – | – | CNC(=O)c1cc(Oc2ccc3nc(NS(=O)(=O)c4cc(Cl)ccc4OC)nnc3c2)ccn1 [4-[3-chloro-6-methoxy-benzenesulfonylamino)-benzo[1,2,4]triazin-7-yloxy]-pyridine-2-carboxylic acid methyl amide trifluoroacetate salt] | not active at 5 uM | –
– | – | – | flat | CNC(=O)c1cc(Oc2ccc3nc(NC(=O)c4ccc(Cl)cc4Cl)nnc3c2)ccn1 [4-[2,4-dichloro-benzoylamino)-benzo[1,2,4]triazin-7-yloxy]-pyridine-2-carboxylic acid methyl amide trifluoroacetate salt] | not active at 5 uM | –
– | – | – | – | O=C(Nc1nnc2cc(Oc3ccncc3)ccc2n1)c1ccc(OC(F)(F)F)cc1 [N-[7-(Pyridin-4-yloxy)-benzo[1,2,4]triazin-3-yl]-4-trifluoromethoxy-benzamide] | not active at 5 uM | 5.13
7.94 | ~20 | – | – | CNC(=O)c1cc(Oc2ccc3nc(Nc4ccc(Cl)c(C(F)(F)F)c4)nnc3c2)ccn1 [4-[3-(4-chloro-3-trifluoromethyl-phenylamino)-benzo[1,2,4]triazin-7-yloxy]-pyridine-2-carboxylic acid methylamide trifluoroacetate salt] | not active at 5 uM | –
6.18 | ~70 | – | – | CNC(=O)c1cc(Oc2ccc3nc(NC(=O)c4cccc(C(F)(F)F)c4)nnc3c2)ccn1 [4-[3-(3-trifluoromethyl-benzoylamino)-benzo[1,2,4]triazin-7-yloxy]-pyridine-2-carboxylic acid methyl amide trifluoroacetate salt] | not active at 5 uM | –
